These are literature values, as cited in patent US20230058142A1, “LIQUID PHARMACEUTICAL COMPOSITION COMPRISING CYTISINE” (priority 2019, published 2023).

For orientation: Ki means the equilibrium dissociation constant of an inhibitor or competing ligand from its target.

This data set has as its target nicotinic α4β2 receptors (Homo sapiens, UniProt P17787+P43681). The note with it: read-out: Ki, affinity for nicotinic α4β2 receptors.

Chain of nicotinic α4β2 receptors (P43681 29-627 limits assumed): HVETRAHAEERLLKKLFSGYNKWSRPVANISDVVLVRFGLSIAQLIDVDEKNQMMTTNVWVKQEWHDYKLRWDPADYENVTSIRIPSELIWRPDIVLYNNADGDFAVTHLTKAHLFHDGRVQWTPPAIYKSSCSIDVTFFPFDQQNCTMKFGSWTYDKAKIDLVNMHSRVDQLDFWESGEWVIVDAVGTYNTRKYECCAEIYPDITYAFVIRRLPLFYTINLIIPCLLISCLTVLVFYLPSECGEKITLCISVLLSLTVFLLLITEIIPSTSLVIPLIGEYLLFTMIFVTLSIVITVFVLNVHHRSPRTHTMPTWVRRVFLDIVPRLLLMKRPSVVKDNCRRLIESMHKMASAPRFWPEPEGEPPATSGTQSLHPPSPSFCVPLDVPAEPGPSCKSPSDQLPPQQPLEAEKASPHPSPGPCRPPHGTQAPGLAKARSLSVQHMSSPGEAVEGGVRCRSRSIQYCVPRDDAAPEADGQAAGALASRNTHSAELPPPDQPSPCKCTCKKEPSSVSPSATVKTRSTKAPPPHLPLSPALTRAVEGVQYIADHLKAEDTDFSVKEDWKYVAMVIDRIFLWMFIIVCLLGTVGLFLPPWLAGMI
Chain of nicotinic α4β2 receptors (P17787 26-502): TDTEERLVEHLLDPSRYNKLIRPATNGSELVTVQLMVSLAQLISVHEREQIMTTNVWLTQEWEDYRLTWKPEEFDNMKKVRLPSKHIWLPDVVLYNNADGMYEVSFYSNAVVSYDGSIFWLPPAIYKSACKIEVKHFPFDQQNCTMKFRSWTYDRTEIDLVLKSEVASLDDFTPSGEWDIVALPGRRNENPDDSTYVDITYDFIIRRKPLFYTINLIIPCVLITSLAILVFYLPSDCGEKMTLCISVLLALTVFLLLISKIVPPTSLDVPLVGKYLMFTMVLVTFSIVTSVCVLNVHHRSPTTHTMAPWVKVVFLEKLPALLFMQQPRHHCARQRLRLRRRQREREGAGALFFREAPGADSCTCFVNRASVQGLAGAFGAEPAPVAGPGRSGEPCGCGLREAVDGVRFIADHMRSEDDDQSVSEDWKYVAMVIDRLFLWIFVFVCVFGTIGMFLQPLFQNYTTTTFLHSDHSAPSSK

With `O=c1cccc2n1C[C@@H]1CNC[C@H]2C1` [Cytisine, (1R-cis)-1,2,3,4,5,6-hexahydro-1,5-methano-8H-pyrido[1,2-a][1,5]diazocin-8-one], the Ki was 450 nM.
